Patent publication US8741911B2, “Raf inhibitor compounds” (Eli Lilly and Company, priority 2012, dated 2014)
Where two headings read alike, the source gives them in different places.

Legend:
U-266 = experiment: CellTiter-Glo proliferation and viability assay; format: cell-based; details: Homo sapiens, read-out: Abs IC50
HT-29 cells = experiment: CellTiter-Blue HT-29 cell proliferation assay; format: cell-based; details: Homo sapiens; HT-29, CellTiter-Blue; read-out: Cell Proliferation Inhibition IC50
Method: (§1) HT-29 cells (catalog #HTB-38) are obtained from the American Type Culture Collection (ATCC, Manassas, Va.). Briefly, cells are grown in McCoy's 5A supplemented with 10% characterized fetal bovine serum (Invitrogen, Carlsbad, Calif.), and 1% Penicillin/Streptomycin/L-Glutamine at 37 degrees Celsius, 5% CO2, and 95% humidity. Cells are allowed to expand until reaching 75-90% confluency at which point they are subcultured or harvested for assay use. A serial dilution of test compound is dispensed into a 384-well black clear bottom plate in triplicate. One thousand two-hundred fifty cells are added per well in 50 μL complete growth medium in the 384-well plate. Plates are incubated for 67 hours at 37 degrees Celsius, 5% CO2, and 95% humidity. At the end of the incubation period, 10 μL of a 440 μM solution of resazurin (Sigma, St. Louis, Mo.) in PBS is added to each well of the plate and plates are incubated for an additional 5 hours at 37 degrees Celsius, 5% CO2, and 95% humidity. Plates are read on a Synergy2 reader (Biotek, Winooski, Vt.) using an excitation of 540 nm and an emission of 600 nm. Data is analyzed using Prism software (Graphpad, San Diego, Calif.) to calculate IC50 values.
(§2) The A375, HT-29, and Colo-205 cells (ATCC) harbor a V600E mutation.

Colo205 cells = experiment: CellTiter-Blue Colo-205 cell proliferation assay; format: cell-based; details: Homo sapiens; Colo-205, CellTiter-Blue; read-out: Cell Proliferation Inhibition IC50
Method: as §1, with “Colo205” for “HT-29”, “#HB-8307)” for “#HTB-38)”, “RPMI 1640” for “McCoy's 5A”, “Calif.), 1 mM sodium pyruvate,” for “Calif.),”, “30-60%” for “75-90%”
as §2

LNCaP-Clone-FGC = experiment: CellTiter-Glo proliferation and viability assay; format: cell-based; details: Homo sapiens
KATOIII = experiment: CellTiter-Glo proliferation and viability assay; format: cell-based; details: Homo sapiens, KATO III
NCI-H2126 = experiment: CellTiter-Glo proliferation and viability assay; format: cell-based; details: Homo sapiens
Solubility = format: physicochemical
NCI-H661 = experiment: CellTiter-Glo proliferation and viability assay; format: cell-based; details: Homo sapiens
NCI-H2030 = experiment: CellTiter-Glo proliferation and viability assay; format: cell-based; details: Homo sapiens
[1] = tested on: hematologic cancer cell lines with N-Ras mutations B-Raf wild type; experiment: CellTiter-Glo proliferation and viability assay, N-Ras mutant hematologic panel; format: cell-based; details: Homo sapiens; 7 of the 9 hematologic cancer cell lines with N-Ras mutations B-Raf wild type
Method: Additional N-RAS mutant B-Raf wild type hematologic cancer cell lines were tested for sensitivity to Example 1. N-Ras activating mutations are common in hematologic cancers occurring at a frequency of 10-30%. Two B-Raf V600E mutant melanoma cell lines (A-375 and SK-Mel-28), nine N-Ras mutant hematologic cell lines (HL-60, THP-1, TALL-1, C8166, H9, IM-9, GA-10 clone 4, P31-FUJ, MOLT-4) and seven N-Ras wild-type cell lines (LOUCY, HEL, U266, EB2, P30-OHK, NOMO-1, CCRF-CEM) were tested, and the IC50 data reported.

Hep3B2.1-7 = experiment: CellTiter-Glo proliferation and viability assay; format: cell-based; details: Homo sapiens
NCI-H1436 = experiment: CellTiter-Glo proliferation and viability assay; format: cell-based; details: Homo sapiens
C-Raf (WT) = C-Raf (WT) (Homo sapiens, UniProt P04049); experiment: biochemical
Chain of C-Raf (WT) (P04049 whole entry): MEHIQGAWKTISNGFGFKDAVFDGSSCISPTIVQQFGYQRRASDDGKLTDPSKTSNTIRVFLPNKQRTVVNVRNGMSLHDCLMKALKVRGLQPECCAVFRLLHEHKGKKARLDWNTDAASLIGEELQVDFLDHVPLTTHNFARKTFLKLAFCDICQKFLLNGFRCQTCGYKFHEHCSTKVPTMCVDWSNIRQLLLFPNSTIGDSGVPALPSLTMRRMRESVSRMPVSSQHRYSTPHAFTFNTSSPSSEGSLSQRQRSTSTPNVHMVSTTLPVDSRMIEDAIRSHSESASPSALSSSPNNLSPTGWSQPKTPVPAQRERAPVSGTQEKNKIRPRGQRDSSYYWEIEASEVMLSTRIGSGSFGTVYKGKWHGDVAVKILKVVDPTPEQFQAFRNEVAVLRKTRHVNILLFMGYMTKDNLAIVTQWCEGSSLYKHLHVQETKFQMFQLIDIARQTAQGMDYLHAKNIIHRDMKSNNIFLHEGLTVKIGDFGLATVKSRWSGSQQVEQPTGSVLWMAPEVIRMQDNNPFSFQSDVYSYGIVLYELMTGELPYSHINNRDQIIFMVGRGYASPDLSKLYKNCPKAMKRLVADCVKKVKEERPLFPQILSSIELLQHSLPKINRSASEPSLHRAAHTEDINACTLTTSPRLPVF

THP-1 = experiment: CellTiter-Glo proliferation and viability assay; format: cell-based; details: Homo sapiens
LN 18 = experiment: CellTiter-Glo proliferation and viability assay; format: cell-based; details: Homo sapiens
A549 = experiment: CellTiter-Glo proliferation and viability assay; format: cell-based; details: Homo sapiens

IC50 (HT-29 cells): 7 nM | IC50 (Colo205 cells): 27 nM | IC50 (LNCaP-Clone-FGC; read-out: Abs IC50): > 20 nM | IC50 (LNCaP-Clone-FGC; read-out: Rel IC50): 2.74 nM | IC50 (NCI-H2126; read-out: Abs IC50): > 20 nM | IC50 (NCI-H2126; read-out: Rel IC50): > 20 nM | solubility (Solubility): poor | IC50 (NCI-H661; read-out: Abs IC50): > 20 nM | IC50 (NCI-H661; read-out: Rel IC50): 12.6 nM | IC50 (NCI-H2030; read-out: Abs IC50): 0.83 nM | IC50 (NCI-H2030; read-out: Rel IC50): 0.41 nM | IC50 [1]: < 1000 nM | IC50 (Hep3B2.1-7; read-out: Abs IC50): 0.8 nM | IC50 (Hep3B2.1-7; read-out: Rel IC50): 0.36 nM | IC50 (NCI-H1436; read-out: Abs IC50): 8.35 nM | IC50 (NCI-H1436; read-out: Rel IC50): 12.7 nM | inhibition at 0.001 µM (C-Raf (WT)): -11% | inhibition at 0.01 µM (C-Raf (WT)): 23.9% | inhibition at 0.1 µM (C-Raf (WT)): 50.8% | inhibition at 1 µM (C-Raf (WT)): 79.3% | IC50 (THP-1; read-out: Abs IC50): 0.08 nM | IC50 (THP-1; read-out: Rel IC50): 0.03 nM | IC50 (A549; read-out: Abs IC50): 4.42 nM | IC50 (A549; read-out: Rel IC50): 2.07 nM
Compound: CNc1ncc2cc(-c3cc(NC(=O)NCCC(C)(C)C)c(F)cc3C)c(C)nc2n1 [Example 1, 1-(3,3-Dimethylbutyl)-3-(2-fluoro-4-methyl-5-(7-methyl-2-(methylamino)pyrido[2,3-d]pyrimidin-6-yl)phenyl)urea]
IC50 (U-266): 1.1 nM | IC50 (KATOIII; read-out: Abs IC50): 0.33 nM | IC50 (KATOIII; read-out: Rel IC50): 0.33 nM | IC50 (LN 18; read-out: Abs IC50): > 20 nM | IC50 (LN 18; read-out: Rel IC50): > 20 nM
